Measurements taken from BindingDB's records for doi:10.1111/cbdd.12811 (Università di Bari Aldo Moro, 2016).

Assays:
[1] = biological target: Multidrug resistance-associated protein 1 (Homo sapiens, UniProt P33527); assay: Calcein-AM Assay
Description: (§1) MDCK-MDR1 or MDCK-MRP1 cells (50,000 cells per well) were seeded into black CulturePlate (96-well plate) with 100 μL medium and allowed to become confluentovernight. Hundred microliters of test compounds was solubilized in culture medium and added to monolayers. 96/wells plate was incubated at 37 °C for 30 min. Calcein-AM was added in 100 μL of phosphate-buffered saline (PBS) to yield a final concentration of 2.5 μm, and plate was incubated for 30 min. Each well was washed three times with ice-cold PBS.

[2] = biological target: ATP-dependent translocase ABCB1 (Homo sapiens, UniProt P08183); assay: Calcein-AM Assay
Description: as §1

Sequence of Multidrug resistance-associated protein 1 (P33527 whole entry): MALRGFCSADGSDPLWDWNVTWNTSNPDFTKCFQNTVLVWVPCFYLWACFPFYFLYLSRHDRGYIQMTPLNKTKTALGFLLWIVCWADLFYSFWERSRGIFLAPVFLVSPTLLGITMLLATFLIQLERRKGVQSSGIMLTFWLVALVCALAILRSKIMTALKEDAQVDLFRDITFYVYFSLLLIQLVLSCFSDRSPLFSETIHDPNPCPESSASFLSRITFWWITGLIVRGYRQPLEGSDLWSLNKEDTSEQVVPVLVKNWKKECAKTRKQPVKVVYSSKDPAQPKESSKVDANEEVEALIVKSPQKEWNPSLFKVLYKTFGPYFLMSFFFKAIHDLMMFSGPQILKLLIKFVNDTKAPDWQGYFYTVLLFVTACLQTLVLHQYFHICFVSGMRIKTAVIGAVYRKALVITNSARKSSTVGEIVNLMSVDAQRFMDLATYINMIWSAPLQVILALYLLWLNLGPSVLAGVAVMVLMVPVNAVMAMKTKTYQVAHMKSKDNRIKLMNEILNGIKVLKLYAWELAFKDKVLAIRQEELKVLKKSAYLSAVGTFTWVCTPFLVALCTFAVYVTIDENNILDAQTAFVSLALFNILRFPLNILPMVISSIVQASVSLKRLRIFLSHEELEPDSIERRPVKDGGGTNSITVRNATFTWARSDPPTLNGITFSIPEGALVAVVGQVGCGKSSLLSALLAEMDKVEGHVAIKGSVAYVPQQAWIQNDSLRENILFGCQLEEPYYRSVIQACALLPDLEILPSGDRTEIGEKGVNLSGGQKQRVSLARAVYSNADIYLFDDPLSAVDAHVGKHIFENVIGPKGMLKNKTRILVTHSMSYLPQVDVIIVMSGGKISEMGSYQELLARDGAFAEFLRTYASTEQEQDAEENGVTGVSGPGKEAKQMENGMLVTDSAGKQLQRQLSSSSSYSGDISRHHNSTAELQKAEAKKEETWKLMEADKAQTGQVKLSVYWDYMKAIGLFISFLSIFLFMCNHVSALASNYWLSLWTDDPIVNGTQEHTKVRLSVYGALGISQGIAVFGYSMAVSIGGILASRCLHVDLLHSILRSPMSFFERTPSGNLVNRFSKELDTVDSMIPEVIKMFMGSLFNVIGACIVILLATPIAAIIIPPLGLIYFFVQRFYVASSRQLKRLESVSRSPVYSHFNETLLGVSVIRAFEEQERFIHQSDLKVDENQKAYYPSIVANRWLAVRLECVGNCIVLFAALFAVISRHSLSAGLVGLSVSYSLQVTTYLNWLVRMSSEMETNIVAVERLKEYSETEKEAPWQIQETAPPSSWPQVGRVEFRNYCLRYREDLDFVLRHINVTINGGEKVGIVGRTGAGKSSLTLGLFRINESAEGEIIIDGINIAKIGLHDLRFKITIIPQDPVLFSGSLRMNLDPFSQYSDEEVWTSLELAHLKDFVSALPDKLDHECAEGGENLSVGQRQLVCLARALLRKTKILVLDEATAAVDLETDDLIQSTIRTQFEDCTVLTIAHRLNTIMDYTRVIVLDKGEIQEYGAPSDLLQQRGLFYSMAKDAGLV
Sequence of ATP-dependent translocase ABCB1 (P08183 whole entry): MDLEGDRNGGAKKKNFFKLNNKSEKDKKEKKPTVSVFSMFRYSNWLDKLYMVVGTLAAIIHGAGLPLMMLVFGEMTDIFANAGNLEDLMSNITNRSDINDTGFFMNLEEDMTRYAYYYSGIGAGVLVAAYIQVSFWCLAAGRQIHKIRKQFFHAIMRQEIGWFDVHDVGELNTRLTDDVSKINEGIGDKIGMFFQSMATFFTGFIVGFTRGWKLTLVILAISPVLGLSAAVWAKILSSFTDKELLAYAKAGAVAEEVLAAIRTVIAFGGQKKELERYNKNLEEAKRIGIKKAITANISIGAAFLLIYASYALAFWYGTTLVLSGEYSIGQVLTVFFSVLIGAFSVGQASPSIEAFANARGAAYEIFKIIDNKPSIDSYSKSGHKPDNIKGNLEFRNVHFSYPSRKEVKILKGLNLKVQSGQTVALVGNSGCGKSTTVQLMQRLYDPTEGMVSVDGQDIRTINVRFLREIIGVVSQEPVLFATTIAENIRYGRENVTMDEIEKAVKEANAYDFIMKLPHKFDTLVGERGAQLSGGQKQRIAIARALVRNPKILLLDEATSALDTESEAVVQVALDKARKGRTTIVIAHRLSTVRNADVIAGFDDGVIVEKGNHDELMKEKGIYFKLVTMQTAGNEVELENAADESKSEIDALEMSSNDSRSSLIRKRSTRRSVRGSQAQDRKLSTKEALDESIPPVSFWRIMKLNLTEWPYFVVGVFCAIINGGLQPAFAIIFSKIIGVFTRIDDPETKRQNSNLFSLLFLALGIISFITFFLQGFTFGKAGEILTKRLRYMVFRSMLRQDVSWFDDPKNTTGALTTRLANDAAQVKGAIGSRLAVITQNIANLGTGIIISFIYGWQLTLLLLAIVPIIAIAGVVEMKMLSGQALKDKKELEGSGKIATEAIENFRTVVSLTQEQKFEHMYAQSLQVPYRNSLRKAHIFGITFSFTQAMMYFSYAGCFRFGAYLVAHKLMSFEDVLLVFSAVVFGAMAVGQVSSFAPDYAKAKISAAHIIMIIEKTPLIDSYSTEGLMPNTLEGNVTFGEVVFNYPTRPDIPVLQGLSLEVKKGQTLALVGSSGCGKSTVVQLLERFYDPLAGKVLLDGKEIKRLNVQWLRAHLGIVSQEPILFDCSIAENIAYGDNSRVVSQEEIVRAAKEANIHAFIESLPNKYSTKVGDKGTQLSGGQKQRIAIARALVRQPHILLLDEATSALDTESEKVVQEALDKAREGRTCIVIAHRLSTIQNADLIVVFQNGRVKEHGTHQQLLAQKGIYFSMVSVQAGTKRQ

SMILES | IC50 [1] | IC50 [2]
COc1cc(OC)c(C(=O)Nc2ccccc2)c(OC)c1 [2,4,6-Trimethoxy-N-phenyl-benzamide (8)] | > 100 µM | > 100 µM
COc1ccccc1NC(=O)c1cc(OC)c(OC)c(OC)c1 [3,4,5-Trimethoxy-N-(2-methoxy-phenyl)-benzamide (13)] | > 100 µM | 26.2 µM
COc1cc(C(=O)Nc2ccc(Br)cc2)cc(OC)c1OC | – | 27 µM
COc1cc(OC)c(C(=O)Nc2ccccc2OC)c(OC)c1 [2,4,6-Trimethoxy-N-(2-methoxy-phenyl)-benzamide (16)] | > 100 µM | 47.6 µM
COc1ccc(C(=O)Nc2ccccc2)c(OC)c1OC [2,3,4-Trimethoxy-N-phenyl-benzamide (7)] | > 100 µM | > 100 µM
COc1cc(OC)c(C(=O)Nc2ccccc2)cc1OC [2,4,5-Trimethoxy-N-phenyl-benzamide (6)] | > 100 µM | 21.9 µM
COc1ccccc1NC(=O)c1ccc(OC)c(OC)c1OC [2,3,4-Trimethoxy-N-(2-methoxy-phenyl)-benzamide (15)] | 71 µM | 30.4 µM
COc1cc(OC)c(C(=O)Nc2ccc(Br)cc2)c(OC)c1 [N-(4-Bromo-phenyl)-2,4,6-trimethoxy-benzamide (12)] | > 100 µM | 76.2 µM
COc1ccc(C(=O)Nc2ccc(Br)cc2)c(OC)c1OC [N-(4-Bromo-phenyl)-2,3,4-trimethoxy-benzamide (11)] | > 100 µM | 19.4 µM
COc1ccccc1NC(=O)c1cc(OC)c(OC)cc1OC [2,4,5-Trimethoxy-N-(2-methoxy-phenyl)-benzamide (14)] | > 100 µM | 3.52 µM
COc1cc(C(=O)Nc2ccccc2)cc(OC)c1OC [3,4,5-trimethoxy-N-phenylbenzamide (5)] | > 100 µM | 70.7 µM
COc1cc(OC)c(C(=O)Nc2ccc(Br)cc2)cc1OC [N-(4-Bromo-phenyl)-2,4,5-trimethoxy-benzamide (10)] | > 100 µM | 9.27 µM
